Target: T1, human MCP-1 receptor (Homo sapiens, UniProt P41597)
T1 construct: expressed in transfected cells; host or cells: CHO cells, transformant CHO(MCR); FERM BP-5446; IFO 50461
Test: Determination of inhibitory activity on MCP-1 receptor (125I-MCP-1 binding to CHO cells expressing human MCP-1 receptor)
Settings: Test Compound 1 μM, 125I-human recombinant MCP-1 100 pM, room temperature 40 minutes
Method: According to a method described in Working Example 1 of JP-A-238688/1997, human MCP-1 receptor gene was prepared. Said gene was inserted to plasmid pMCR, which was introduced into CHO cell. The resultant transformant [CHO(MCR); FERM BP-5446; IFO 50461] was used for the following experiment.
On 96 well culture plate (Packard Instrument Company), 7×10^4 cell/well of CHO cells expressing human MCP-1 receptor were inoculated, and the cells were cultivated at 37° C., overnight. The medium was removed by means of suction. To the residue were added a buffer solution (D-MEM containing 0.5% BSA and 20 mM HEPES; pH7.4), Test Compound (1 μM) and ^125I-human recombinant MCP-1 (Amersham; final concentration: 100 pM), and the mixture was allowed to react at room temperature for 40 minutes. The buffer solution was removed by means of suction and washed twice with PBS. To the residue was added MICROSCINT-20 (Packard Instrument Company), radioactivity of ^125I (cpm) was determined with Topcount (Packard).
The count number (cpm) (non-specific binding) of ^125I which binds to CHO cells (mock) having a vector was taken from the count number (cpm) of ^125I which binds to CHO cells expressing human MCP-1 receptor to obtain the amended count number, which was converted into 100%, and inhibition rate of Test Compound (whose number is referred to in the following Examples) against MCP-1 binding to its receptor was calculated.

T1 sequence (P41597 whole entry): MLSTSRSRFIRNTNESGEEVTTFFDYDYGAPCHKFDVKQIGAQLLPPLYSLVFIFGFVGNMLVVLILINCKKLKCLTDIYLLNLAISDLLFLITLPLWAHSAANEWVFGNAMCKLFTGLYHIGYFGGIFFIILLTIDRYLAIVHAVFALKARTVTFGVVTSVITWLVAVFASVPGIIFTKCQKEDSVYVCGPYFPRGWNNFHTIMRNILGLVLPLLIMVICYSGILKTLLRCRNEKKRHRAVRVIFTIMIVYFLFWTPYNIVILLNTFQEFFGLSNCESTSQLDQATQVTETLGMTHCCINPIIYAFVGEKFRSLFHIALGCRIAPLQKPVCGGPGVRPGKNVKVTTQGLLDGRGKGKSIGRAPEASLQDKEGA

SMILES | Inhibition Rate (%) against MCP-1 binding to its receptor [%]
Cc1ccc(-c2ccc3c(c2)C=C(C(=O)Nc2ccc(C[N+]4(C)CCCCC4)cc2)CCS3)cc1 [Compound 94, 1—(N-(7—(4-methylphenyl)-2,3-dihydro-1-benzo-thiepine-4-carbonyl)-4-aminobenzyl)-1-methyl-piperidinium iodide] | 92
Cc1ccc(-c2ccc3c(c2)C=C(C(=O)Nc2ccc(C[N+]4(C)CCCCC4)cc2)CC3)cc1 [Compound 16, 1-methyl-1-[4-[7—(4-methylphenyl)-3,4-dihydronaphthalene-2-carboxamido]benzyl]piperidinium iodide] | 89
Cc1ccc(-c2ccc3c(c2)C=C(C(=O)Nc2ccc(C[N+](C)(C)C4CCOCC4)cc2)CCC3)cc1 [Compound 220, N,N-dimethyl-N-(4—((2—(4-methylphenyl)-6,7-dihydro-5H-benzocyclohepten-8-yl)carbonyl)aminobenzyl)-N-(4-tetrahydropyranyl)ammonium iodide] | 98
Cc1ccc(-c2ccc3c(c2)C=C(C(=O)Nc2ccc(C[N+]4(C)CCCCC4)cc2)CCO3)cc1 [Compound 97, 1—(N-(7—(4-methylphenyl)-2,3-dihydro-1-benzoxepin-4-carbonyl)-4-aminobenzyl)-1-methylpiperidinium chloride] | 96
Cc1ccc(-c2cccc(/C=C/C(=O)Nc3ccc(C[N+]4(C)CCCCC4)cc3)c2)cc1 [Compound 72, (E)-1-methyl-1-[4—(3—(4-methylphenyl)cinnamamido)benzyl]-piperidinium iodide] | 77

More lines, now with the values ahead:

Inhibition Rate (%) against MCP-1 binding to its receptor [%] | SMILES
80 | CN(Cc1ccc(NC(=O)C2=Cc3cc(-c4ccc(N5CCCCC5)cc4)ccc3OCC2)cc1)C1CCOCC1 [Compound 151]
80 | Cc1ccc(-c2ccc3c(c2)C=C(C(=O)Nc2ccc(CN(C)C4CCOCC4)cc2)CCO3)cc1 [Compound 128, N-(4—(N-methyl-(N-tetrahydropyran-4-yl)aminomethyl)phenyl)-7—(4-methylphenyl)-2,3-dihydro-1-benzoxepine-4-carboxamide]
64 | CCc1ccc(-c2ccc3c(c2)C=C(C(=O)Nc2ccc(CP4(=O)CCCCC4)cc2)CCO3)cc1 [Compound 178, N-(4—(pentamethylene)-phosphorylmethylphenyl)-7—(4-ethylphenyl)-2,3-dihydro-1-benzoxepine-4-carboxamide]

Tested on: not given
Test: not given
Settings: not given

SMILES | melting point
Cc1ccc(-c2cccc(/C=C/C(=O)Nc3ccc(CN4CCCCC4CO)cc3)c2)cc1 (stereo not drawn) [Compound 68, (E)-N-[4-[2—(hydroxy-methyl)piperidinomethyl]phenyl]-3—(4-methylphenyl)cinnamamide] | 137 to 139 °C
Cc1ccc(-c2ccc3c(c2)C=C(C(=O)Nc2ccc(CNCC4CCCCC4)cc2)CCO3)cc1 [Compound 122, N-(4—((cyclohexylmethyl)aminomethyl)phenyl)-7—(4-methylphenyl)-2,3-dihydro-1-benzoxepine-4-carboxamide] | 154 to 155 °C
Cc1ccc(-c2ccc3c(c2)C=C(C(=O)Nc2ccc(CSCc4ccccc4)cc2)CCO3)cc1 [Compound 86, N-(4—(benzylthiomethyl)phenyl)-7—(4-methylphenyl)-2,3-dihydro-1-benzoxepine-4-carboxamide] | 145 to 146 °C
Cc1ccc(-c2ccc3c(c2)C=C(C(=O)Nc2ccc(CN4CCSCC4)cc2)CC3)cc1 [Compound 50, 7—(4-methylphenyl)-N-[4—(thiomorpholinomethyl)phenyl]-3,4-dihydro-naphthalene-2-carboxamide] | 178 to 180 °C
Cc1ccc(-c2cccc(/C=C/C(=O)Nc3ccc(C(O)c4ccccn4)cc3)c2)cc1 (stereo not drawn) [Compound 79, (E)-N-[4-[hydroxy(2-pyridyl)methyl]phenyl]-3—(4-methylphenyl)cinnamamide] | 162 to 165 °C
Cc1ccc(-c2ccc3c(c2)C=C(C(=O)Nc2ccc(CN4CCC(O)CC4)cc2)CC3)cc1 [Compound 49, N-[4—(4-hydroxypiperidinomethyl)phenyl]-7—(4-methylphenyl)-3,4-dihydronaphthalene-2-carboxamide] | 223 to 224 °C
Cc1ccc(-c2cccc(/C=C/C(=O)Nc3ccc(CN4CCCCC4)cc3)c2)cc1 [Compound 70, (E)-N-[4—(piperidinomethyl)phenyl]-3—(4-methylphenyl)cinnamamide] | 154 to 156 °C
Cc1ccc(-c2ccc3c(c2)C=C(C(=O)Nc2ccc(CN(C(C)C)C(C)C)cc2)CCO3)cc1 [Compound 119, N-(4—((diisopropylamino)methyl)phenyl)-7—(4-methylphenyl)-2,3-dihydro-1-benzoxepine-4-carboxamide] | 152 to 153 °C
O=C(C=Cc1cccc(-c2ccccc2)c1)Nc1ccc(CN2CCCCC2)cc1 [Compound 81, 1—(4—(3-phenylcinnamoylamino)-benzyl)piperidine] | 159 to 160 °C

Second part, the molecule after the results:

melting point | SMILES
162 to 163 °C | Cc1ccc(-c2ccc3c(c2)C=C(C(=O)Nc2ccc(CN(C)C4CCOCC4)cc2)CCO3)cc1 [Compound 128, N-(4—(N-methyl-(N-tetrahydropyran-4-yl)aminomethyl)phenyl)-7—(4-methylphenyl)-2,3-dihydro-1-benzoxepine-4-carboxamide]
229 to 230.5 °C | Cc1ccc(-c2ccc3c(c2)C=C(C(=O)Nc2ccc(CN(C)C4CCOCC4)cc2)CCN3C=O)cc1 [Compound 317, 1-formyl-7-(4-methylphenyl)-N-[4-[[N-methyl-N-(tetrahydro-2H-pyran-4-yl)amino]methyl]phenyl]-2,3-dihydro-1-benzazepine-4-carboxamide]
189 to 190 °C | Cc1ccc(-c2ccc3c(c2)C=C(C(=O)Nc2ccc(Cc4ccccn4)cc2)CCO3)cc1 [Compound 161, N-[4—(2-pyridylmethyl)phenyl]-7—(4-methylphenyl)-2,3-dihydro-1-benzoxepine-4-carboxamide]
119 to 122 °C | CCOCCCN(C)Cc1ccc(NC(=O)C2=Cc3cc(-c4ccc(C)cc4)ccc3OCC2)cc1 [Compound 312, N-(4-((N-(3-ethoxypropyl)-N-methylamino)methyl)phenyl)-7-(4-methylphenyl)-2,3-dihydro-1-benzoxepine-4-carboxamide]
202 to 204 °C | CN1CCC(C(=O)Nc2ccc(CN(C)C3CCOCC3)cc2)=Cc2cc(-c3ccc(N4CCCCC4)cc3)ccc21 [Compound 316, 1-methyl-N-[4-[[N-methyl-N-(tetrahydro-2H-pyran-4-yl)amino]methyl]-phenyl]-7-[4-(1-piperidinyl)phenyl]-2,3-dihydro-1-benzazepine-4-carboxamide]
180 to 186 °C | CSc1ccc(-c2ccc3c(c2)C=C(C(=O)Nc2ccc(CN(C)C4CCOCC4)cc2)CCO3)cc1 [Compound 226, N-[4-[N-methyl-N-(tetrahydropyran-4-yl)aminomethyl]-phenyl]-7—(4-methylthiophenyl)-2,3-dihydro-1-benzoxepine-4-carboxamide]
293 to 294 °C (dec.) | CN(C)c1ccc(-c2ccc3c(c2)C=C(C(=O)Nc2ccc(CP4(=O)CCCCC4)cc2)CCO3)cc1 [Compound 154, 7—(4-dimethylaminophenyl)-N-(4—((1-oxophosphorinan-1-yl)methyl)phenyl)-2,3-dihydro-1-benzoxepine-4-carboxamide]
262 °C (dec.) | Cc1ccc(-c2ccc3c(c2)C=C(C(=O)Nc2ccc(-c4ccc[n+]([O-])c4)cc2)CCO3)cc1 [Compound 165, N-[4—(1-oxidopyridin-3-yl)phenyl]-7—(4-methylphenyl)-2,3-dihydro-1-benzoxepine-4-carboxamide]
158 to 159 °C | CN(Cc1ccc(NC(=O)C2=Cc3cc(-c4cccnc4)ccc3OCC2)cc1)C1CCOCC1 [Compound 146, 7—(3-pyridyl)-N-(4—((N-tetrahydropyran-4-yl-N-methylamino)-methyl)phenyl)-2,3-dihydro-1-benzoxepine-4-carboxamide]
182 to 183 °C | CN1CCC(C(=O)Nc2ccc(CN(C)C3CCOCC3)cc2)=Cc2cc(-c3ccc(OC(F)(F)F)cc3)ccc21 [Compound 315, 1-methyl-N-[4-[[N-methyl-N-(tetrahydro-2H-pyran-4-yl)amino]methyl]phenyl]-7-(4-trifluoromethoxyphenyl)-2,3-dihydro-1-benzazepine-4-carboxamide]

— patent publication US6413947B1, “Anilide derivative, production and use thereof” (Takeda Chemical Industries, Ltd., priority 1997, dated 2002)
